Values quoted from earlier work in patent US11185594B2, “(Anti-HER2 antibody)-drug conjugate” (DAIICHI SANKYO COMPANY, LIMITED, priority 2014, dated 2021).

Experiments:
topoisomerase I = target: T1, topoisomerase I (Homo sapiens, UniProt P11387); conditions: compared with SN-38 and topotecan
T1 sequence (P11387 1-765): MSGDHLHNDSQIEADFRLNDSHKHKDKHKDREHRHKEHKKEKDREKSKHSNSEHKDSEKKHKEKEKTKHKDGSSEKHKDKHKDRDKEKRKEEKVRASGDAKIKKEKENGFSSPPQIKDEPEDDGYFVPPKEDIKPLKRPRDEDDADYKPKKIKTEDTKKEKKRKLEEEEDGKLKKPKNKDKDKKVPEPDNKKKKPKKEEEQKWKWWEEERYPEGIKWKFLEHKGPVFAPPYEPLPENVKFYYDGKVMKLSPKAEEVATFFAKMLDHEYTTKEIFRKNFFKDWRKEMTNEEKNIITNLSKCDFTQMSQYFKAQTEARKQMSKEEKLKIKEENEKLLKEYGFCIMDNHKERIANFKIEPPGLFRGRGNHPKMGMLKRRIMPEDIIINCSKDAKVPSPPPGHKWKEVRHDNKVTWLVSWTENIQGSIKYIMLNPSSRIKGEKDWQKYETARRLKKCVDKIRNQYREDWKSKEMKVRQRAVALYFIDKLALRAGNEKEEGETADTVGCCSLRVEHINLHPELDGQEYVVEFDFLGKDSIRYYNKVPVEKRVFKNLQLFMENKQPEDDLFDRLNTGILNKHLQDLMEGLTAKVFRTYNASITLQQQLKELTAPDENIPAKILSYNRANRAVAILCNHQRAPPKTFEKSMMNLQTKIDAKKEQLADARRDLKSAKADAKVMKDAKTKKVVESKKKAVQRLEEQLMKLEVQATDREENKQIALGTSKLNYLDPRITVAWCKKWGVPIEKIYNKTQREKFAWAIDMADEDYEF

human tumor = human tumor subcutaneously transplanted mouse model

SMILES: CC[C@@]1(O)C(=O)OCc2c1cc1n(c2=O)Cc2c-1nc1cc(F)c(C)c3c1c2[C@@H](N)CC3 [exatecan, (1S,9S)-1-amino-9-ethyl-5-fluoro-2,3-dihydro-9-hydroxy-4-methyl-1H,12H-benzo[de]pyrano[3′,4′:6,7]indolizino[1,2-b]quinoline-10,13(9H,15H)-dione]
- inhibitory activity on topoisomerase I (topoisomerase I): higher than SN-38
- in vitro cytocidal activity (various cancer cells; against various cancer cells): higher in vitro cytocidal activity was confirmed
- effect against resistant cancer cells (various cancer cells; cancer cells resistant to SN-38 or the like due to expression of P-glycoprotein): confirmed to have the effect
- antitumor effect (human tumor): potent antitumor effect
